Test results: patent US7052850B2, “Isolated human EDG-4 receptor” (priority 1997, dated 2006)
“Also recorded” adds a separate entry of the source.

Legend:
HeLa cells = assay: IL-8 response (IL-8 ELISA) in HeLa cells; format: cell-based, human
Method: • Cells: HeLa (adenocarcinoma, human) • Media: DMEM/F12+10% FBS Adherent • 1) Cells were seeded at 0.2×10^6 cells/well in 6-well plates. • 2) Confluency of cells after 24–32 hrs was between 60–70%. B. Overnight Serum-Starvation • 1) Media was aspirated (no PBS wash). • 2) 1.5 ml 0.5% FBS media was added to each well. C. Treatments and Collection • 1) Made up all required solutions in 0.5% FBS media (control). Handling of […] for use in NF-κB experiments requires that sonication, commonly used to resuspend LPA, not be done; NF-κB may be activated by lipid peroxides created through vigorous frothing. Solutions:
D. Detection of Interleukin-8 (IL-8) using an IL-8 ELISA (Enzyme-Linked ImmunoSorbent Assay). • 1) The Quantikine Human IL-8 Immuno Assay Kit was obtained from R&D Systems (Cat. D8050). • 2) The kit and all samples were allowed to equlibrate to room temperature prior to use. • 3) All reagents were provided in the kit and prepared according to the instructions provided. • 4) The assay procedure was followed as recommended in the kit for cell culture supernatant samples. • 5) ELISA was performed on 50 μl samples of culture supernatant and duplicate samples were measured for each well. Each treatment was performed on triplicate wells. • 6) Plates were read on UV max kinetic microplate reader (Molecular Devices), set to 450 nm and correction set to 575 nm, using Wsoftmax sotware version 2.34.
• 1) Cells were seeded at 2.5×10^4 cells/well in 24-well plates. • 2) Confluency of cells after 24–32 hrs was between 60–70%. B. Overnight Serum-Starvation and PTX Pre-Treatment • 1) Media was aspirated (no PBS wash). • 2) 0.5 ml 0.5% FBS media was added to all wells not requiring PTX pre-treatment. • 3) For well requiring PTX; 0.5 ml 0.5% FBS media containing 50 ng/ml PTX (1 volume PTX (RBI Cat. P140): 1 volume DTT, incubate 37° C. for 30 minutes then dilute to 50 ng/ml) was added. C. Treatments and Collection • 1) Made up all required solutions in 0.5% FBS media (control). […] D. Refer to Procedure #1 For HeLa Cells (D).

[1] = test system: pcDNA3-transfected 293-EBNA cells; assay: NF-κB luciferase reporter in 293-EBNA cells, empty vector pcDNA3; format: cell-based; conditions: empty vector control; S1P, SPC 1-10 μM, LPA 10 μM, 20% FBS
Method: • 1) 150 mm plates of 293-EBNA obtained from Invitrogen (Cat. R620-07) with a confluency of 18 80% were used for transfection. • 2) 6.6 μg NF-κB-tk-p4Luc reporter DNA and 6.6 μg of pC3-redg4 (expressing rat EDG-4), or pcDNA3 DNA was diluted in 500 μl OPTI-MEM (Gibco; Cat. 31985-062) • 3) 96.8 μl Lipofectamine (Gibco; Cat. 18324-020) was diluted in 500 μl of OPTI-MEM. • 4) The 2 solutions were mixed gently and the tube was incubated for 30 min at room temperature. • 5) The 293-EBNA plates were washed once with PBS and 13 ml OPTI-MEM was added to each plate, • 6) 6 ml OPTI-UMM was added to each transfection tube and this was added to a plate of 293EBNA cells. The plates were left for 4 hrs at 37° C. in a 5% CO2 incubator. • 7) After 4 his, the media was removed and replaced with frest 10% FBS media. Day 2: • 1) Transfected cells were washed, typsinized with 1× tryspin, resuspended in 10 ml media and counted. • 2) 0.02×10 ^6 cells were plated per well of a 96-well Blackview plate coated with polyD-lysine. No cells were plated in the outside wells of the 96-well plate. Two 96-well plates were seeded for each transfection. Day 3: • 1) Cells were washed with PBS and 140 μl serum-free media (SFM) added to each well. Plates were incubated in 37° C. incubator for 6 hrs. • 2) After 6 hrs, media was removed and cells treated with compounds diluted in 0.5% FBS media (140 μl added to each well). The Following Treatments Were Used: pcDNA3:
Day 4 Luciferase Assay • 1) Luclite kit (Packard; Cat. 6016911) was used for luciferase assay. All reagents were brought to room temperature before use. • 2) Supernatant was transferred to a new 96-well plate and stored at −20 C. for […] IL-8 measurement. • 3) 50 μl 0.5 M HEPES pH 7.8 buffer (1 mM MgCl21 mM CaCl2) was addeded to all wells of 96-well plate. […] A stop plate was placed on top of the blackview plate to keep it in the dark. • 6) Plates were incubated at room temperature for 30 min. • 7) After incubation, plates were counted in a 12 detector Packard Top Count on a program without dark delay. […]

## lysophosphatidic acid [LPA]
HeLa cells; 1 and 10 μM, 1, 6 or 24 hours
  IL-8 response: not
[1]
  NF-κB reporter response in pcDNA3-transfected cells: no response

## CCCCCCCCCCCCC/C=C/[C@@H](O)[C@@H](N)COP(=O)([O-])OCC[N+](C)(C)C [SPC, sphingosylphosphorylcholine]
HeLa cells; 6 hours, concentration series
  IL-8 induction: can induce IL-8 in HeLa cells in a concentration-dependent manner; also recorded: significantly induced IL-8 production
[1]
  NF-κB reporter response in pcDNA3-transfected cells: No response; also recorded: No such induction

## CCCCCCCCCCCCC/C=C/[C@@H](O)[C@@H](N)COP(=O)(O)O [S1P, sphingosine 1-phosphate]
[1]
  NF-κB reporter response in pcDNA3-transfected cells: No increase in luciferase activity; also recorded: No response; also recorded: No such induction
